Consider 17 compounds from ChEMBL document CHEMBL1821651, “Structure-activity relationships of phosphoinositide 3-kinase (PI3K)/mammalian target of rapamycin (mTOR) dual inhibitors: investigations of various 6,5-heterocycles to improve metabolic stability” (J Med Chem, 2011).

Data set [1] in a line: Clearance in mouse liver microsomes. In kind it is ADME, Microsome. On the technique in general: Liver microsomes are vesicles of endoplasmic reticulum, rich in cytochrome P450 enzymes.
The nature of data set [2]: Clearance in Beagle dog liver microsomes. In kind it is ADME, Canis lupus familiaris, Microsome.
Data set [3] in a line: Clearance in cynomolgus monkey liver microsomes. The data set is classed as ADME, Macaca fascicularis, Microsome.
Data set [4] is filed under the species Rattus norvegicus. The data set is described as follows: Liver blood flow in Sprague-Dawley rat. The data set is classed as ADME, organism-based.
A further data set is filed under the species Canis familiaris. The data set is described as follows: Liver blood flow in Beagle dog. The data set is classed as ADME, organism-based, Canis lupus familiaris.
The species entered for data set [5] is Mus musculus. The data set is described as follows: Liver blood flow in mouse. The data set is classed as ADME, organism-based.
The nature of data set [6]: in vitro. The conditions noted are these: human, liver microsomes.
Description: Clearance in human liver microsomes
Data set [7] in a line: in vitro. The conditions noted are these: Sprague-Dawley, rat, liver microsomes.
Description: Clearance in Sprague-Dawley rat liver microsomes
Data set [8] deals with Serine/threonine-protein kinase mTOR (Homo sapiens, UniProt P42345). The data set can be described thus: Inhibition of recombinant N-terminal GST-tagged mTOR-mediated 4E-BP1 phosphorylation after 60 mins by TR-FRET assay. In general terms: Time-resolved FRET reads energy transfer from a long-lived donor to a nearby acceptor.
In data set [9] the target is Phosphatidylinositol 4,5-bisphosphate 3-kinase catalytic subunit gamma isoform (Homo sapiens, UniProt P48736). The data set is described as follows: Inhibition of human N-terminal His-tagged PI3Kgamma expressed in insect Sf9 cells using PI(4,5)P2 as substrate after 20 mins by alphascreen assay in presence of 8 uM ATP. A general note: Bead proximity is the source of the signal in Alpha formats.
Chain of Phosphatidylinositol 4,5-bisphosphate 3-kinase catalytic subunit gamma isoform (P48736 whole entry, canonical isoform): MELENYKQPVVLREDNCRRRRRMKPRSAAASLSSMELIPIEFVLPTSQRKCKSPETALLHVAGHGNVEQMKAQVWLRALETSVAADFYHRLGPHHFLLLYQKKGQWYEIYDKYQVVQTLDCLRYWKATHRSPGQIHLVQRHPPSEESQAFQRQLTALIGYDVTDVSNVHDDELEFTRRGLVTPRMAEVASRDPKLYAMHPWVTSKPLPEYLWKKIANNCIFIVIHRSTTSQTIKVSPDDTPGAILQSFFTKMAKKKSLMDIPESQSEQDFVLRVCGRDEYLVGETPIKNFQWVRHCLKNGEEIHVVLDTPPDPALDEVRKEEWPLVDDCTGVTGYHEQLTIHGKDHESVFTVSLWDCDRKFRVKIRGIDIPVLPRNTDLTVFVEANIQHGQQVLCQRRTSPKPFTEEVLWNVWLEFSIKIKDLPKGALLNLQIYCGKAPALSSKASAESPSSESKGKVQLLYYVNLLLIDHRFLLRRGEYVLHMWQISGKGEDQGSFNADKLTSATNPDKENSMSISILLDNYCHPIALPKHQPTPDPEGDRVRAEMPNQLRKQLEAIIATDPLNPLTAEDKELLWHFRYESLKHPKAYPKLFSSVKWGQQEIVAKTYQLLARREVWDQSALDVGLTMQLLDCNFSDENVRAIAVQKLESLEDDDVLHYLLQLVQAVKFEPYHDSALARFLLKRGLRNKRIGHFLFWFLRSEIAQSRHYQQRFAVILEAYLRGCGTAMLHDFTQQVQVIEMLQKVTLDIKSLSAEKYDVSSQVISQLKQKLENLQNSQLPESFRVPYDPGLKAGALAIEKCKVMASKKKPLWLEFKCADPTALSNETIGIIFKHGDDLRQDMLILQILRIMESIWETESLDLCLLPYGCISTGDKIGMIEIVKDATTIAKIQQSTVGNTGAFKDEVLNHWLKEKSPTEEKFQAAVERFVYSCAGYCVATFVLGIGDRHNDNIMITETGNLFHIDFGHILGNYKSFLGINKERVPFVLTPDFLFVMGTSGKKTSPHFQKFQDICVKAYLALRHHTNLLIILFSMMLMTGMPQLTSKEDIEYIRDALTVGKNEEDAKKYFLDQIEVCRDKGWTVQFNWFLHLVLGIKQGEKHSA

The target of data set [10] is T1, Phosphatidylinositol 4,5-bisphosphate 3-kinase catalytic subunit delta isoform (Homo sapiens, UniProt O00329).
T1 sequence (O00329 whole entry): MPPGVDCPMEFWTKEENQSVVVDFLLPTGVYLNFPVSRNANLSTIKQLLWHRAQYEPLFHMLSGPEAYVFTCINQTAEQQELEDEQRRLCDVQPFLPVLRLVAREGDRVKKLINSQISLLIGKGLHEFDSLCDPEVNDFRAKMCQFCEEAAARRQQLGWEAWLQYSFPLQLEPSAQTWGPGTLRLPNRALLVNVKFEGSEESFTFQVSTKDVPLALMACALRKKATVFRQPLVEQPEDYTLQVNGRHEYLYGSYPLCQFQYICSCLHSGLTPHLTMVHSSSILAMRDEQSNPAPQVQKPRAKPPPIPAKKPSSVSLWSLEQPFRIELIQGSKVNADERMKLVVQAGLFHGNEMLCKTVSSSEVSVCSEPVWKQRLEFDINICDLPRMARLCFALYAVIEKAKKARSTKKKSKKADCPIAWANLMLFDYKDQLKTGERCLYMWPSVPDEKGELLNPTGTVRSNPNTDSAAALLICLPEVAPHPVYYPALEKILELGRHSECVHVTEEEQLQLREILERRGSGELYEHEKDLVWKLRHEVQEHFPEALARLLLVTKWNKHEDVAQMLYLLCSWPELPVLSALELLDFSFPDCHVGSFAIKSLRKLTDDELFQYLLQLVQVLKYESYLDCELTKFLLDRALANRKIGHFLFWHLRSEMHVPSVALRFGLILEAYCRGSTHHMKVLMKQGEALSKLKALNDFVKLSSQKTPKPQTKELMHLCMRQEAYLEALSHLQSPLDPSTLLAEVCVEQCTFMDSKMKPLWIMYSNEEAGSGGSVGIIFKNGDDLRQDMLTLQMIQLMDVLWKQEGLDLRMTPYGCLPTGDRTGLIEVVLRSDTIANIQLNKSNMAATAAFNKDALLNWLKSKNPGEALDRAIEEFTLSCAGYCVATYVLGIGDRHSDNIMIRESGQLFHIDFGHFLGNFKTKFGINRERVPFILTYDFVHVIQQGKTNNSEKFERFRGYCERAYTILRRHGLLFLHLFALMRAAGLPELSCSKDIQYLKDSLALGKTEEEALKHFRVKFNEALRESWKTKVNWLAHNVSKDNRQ
The data set is described as follows: Inhibition of human N-terminal His-tagged PI3Kdelta expressed in insect Sf9 cells using PI(4,5)P2 as substrate after 20 mins by alphascreen assay in presence of 8 uM ATP.

Data set [11] is described as follows: Clearance in iv dosed Sprague-Dawley rat. The data set is classed as ADME, organism-based. The conditions noted are these: in vivo.
The subject of data set [12] is Rattus norvegicus. The data set is described as follows: Liver blood flow in iv dosed Sprague-Dawley rat. In kind it is ADME, organism-based. The following applies: in vivo.
The nature of data set [13]: Volume of distribution in iv dosed Sprague-Dawley rat. The data set is classed as ADME, organism-based. The conditions noted are these: in vivo.
Data set [14] is described as follows: Elimination half life in iv dosed Sprague-Dawley rat. The data set is classed as ADME, organism-based. The following applies: in vivo, read-out: beta t1/2 (converted).
A short description of data set [15]: Oral bioavailability in Sprague-Dawley rat at 2 mg/kg. The data set is classed as ADME, organism-based. The conditions noted are these: in vivo.
Data set [16] in a line: AUC in Sprague-Dawley rat at 2 mg/kg, po. More on the design: dose 2 mg/kg, route oral. The data set is classed as ADME, organism-based. The following applies: plasma.
The nature of data set [17]: Ratio of drug level in tumor to plasma in nu/nu CD1 mouse xenografted with U87MG tumor at 1 mg/kg, po administered as single dose measured upto 8 hrs. The conditions noted are these: tumor and plasma. More on the design: dose 1 mg/kg, route oral. The data set is classed as ADME, organism-based.
A short description of data set [18]: Ratio of drug level in tumor to plasma in nu/nu CD1 mouse xenografted with U87MG tumor at 3 mg/kg, po administered as single dose measured upto 16 hrs. Set-up: dose 3 mg/kg, route oral. The following applies: tumor and plasma. In kind it is ADME, organism-based.
Data set [19] has as its system Mus musculus. The data set is described as follows: In vivo inhibition of PI3Kalpha-mediated Akt phosphorylation in nu/nu CD1 mouse xenografted with U87MG tumor. The data set is classed as functional, organism-based. The conditions noted are these: CD1, U-87 MG.
The nature of data set [20]: Antitumor activity against human U87MG tumor xenografted in nu/nu CD1 mouse assessed as inhibition of tumor growth at 1 mg/kg, po qd. The conditions noted are these: U-87 MG, read-out: GI. The data set is classed as functional, U-87MG ATCC.
The nature of data set [21]: Antitumor activity against human U87MG tumor xenografted in po dosed nu/nu CD1 mouse assessed as tumor growth delay. The data set is classed as functional, U-87MG ATCC. The following applies: U-87 MG.
Data set [22] in a line: AUC (0 to 24 hrs) in plasma of nu/nu CD1 mouse xenografted with human U87MG cells at ED50. In kind it is ADME, organism-based, U-87MG ATCC. More on the design: time < 24 hr.
Data set [23] concerns Mus musculus. The data set can be described thus: Toxicity in nu/nu CD1 mouse xenografted with human U87MG cells assessed as weight loss at 3 mg/kg, po relative to control. In kind it is organism-based, U-87MG ATCC. More on the design: dose 3 mg/kg, route oral. The conditions noted are these: in vivo.
Data set [24] concerns the target Phosphatidylinositol 4,5-bisphosphate 3-kinase catalytic subunit alpha isoform (Homo sapiens, UniProt P42336). The data set can be described thus: Inhibition of human PI3Kalpha using PI(4,5)P2 as substrate after 20 mins by alphascreen assay in presence of 20 uM ATP.
In data set [25] the target is Phosphatidylinositol 4,5-bisphosphate 3-kinase catalytic subunit beta isoform (Homo sapiens, UniProt P42338). The data set can be described thus: Inhibition of human N-terminal His-tagged PI3Kbeta expressed in insect Sf9 cells using PI(4,5)P2 as substrate after 20 mins by alphascreen assay in presence of 20 uM ATP.
Chain of Phosphatidylinositol 4,5-bisphosphate 3-kinase catalytic subunit beta isoform (P42338 whole entry, canonical isoform): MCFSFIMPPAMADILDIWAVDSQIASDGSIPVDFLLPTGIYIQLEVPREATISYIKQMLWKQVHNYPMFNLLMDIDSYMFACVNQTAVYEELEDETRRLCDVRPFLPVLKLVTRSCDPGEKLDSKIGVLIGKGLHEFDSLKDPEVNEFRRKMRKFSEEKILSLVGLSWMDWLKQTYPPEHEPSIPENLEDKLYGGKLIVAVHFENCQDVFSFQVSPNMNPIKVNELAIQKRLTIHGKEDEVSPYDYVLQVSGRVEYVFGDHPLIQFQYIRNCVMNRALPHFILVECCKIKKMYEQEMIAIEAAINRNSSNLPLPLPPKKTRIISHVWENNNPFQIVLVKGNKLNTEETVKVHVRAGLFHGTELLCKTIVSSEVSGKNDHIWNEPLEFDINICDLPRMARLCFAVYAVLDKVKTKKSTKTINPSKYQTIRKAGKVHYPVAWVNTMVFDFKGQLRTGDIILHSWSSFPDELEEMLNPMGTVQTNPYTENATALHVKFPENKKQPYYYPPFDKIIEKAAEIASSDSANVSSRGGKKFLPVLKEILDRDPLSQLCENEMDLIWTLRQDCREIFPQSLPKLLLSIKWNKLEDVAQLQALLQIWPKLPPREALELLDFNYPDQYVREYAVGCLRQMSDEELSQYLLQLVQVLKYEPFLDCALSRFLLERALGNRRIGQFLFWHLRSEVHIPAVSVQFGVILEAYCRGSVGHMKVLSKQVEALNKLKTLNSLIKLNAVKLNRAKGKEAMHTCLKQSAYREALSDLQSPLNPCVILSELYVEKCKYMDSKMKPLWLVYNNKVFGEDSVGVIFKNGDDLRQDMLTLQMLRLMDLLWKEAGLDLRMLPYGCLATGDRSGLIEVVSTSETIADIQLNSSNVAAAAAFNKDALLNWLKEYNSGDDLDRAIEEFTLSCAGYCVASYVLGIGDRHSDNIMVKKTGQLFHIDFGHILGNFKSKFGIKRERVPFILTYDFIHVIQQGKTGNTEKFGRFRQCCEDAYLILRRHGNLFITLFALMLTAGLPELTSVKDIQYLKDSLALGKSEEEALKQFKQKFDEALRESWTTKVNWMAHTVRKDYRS
In a further data set the test system is Plasma. The data set can be described thus: Plasma EC50 for pAkt inhibition in nu/nu CD1 mouse xenografted with U87 MG tumor.

Broadly, the microsomal CLint is a measure of how fast metabolising enzymes remove a compound, apart from limits set by blood flow. The term IC50 denotes the point on the concentration scale where inhibition reaches its midpoint. One may read the Ki as a measure of affinity in units of concentration, obtained from inhibition or displacement. As a reminder, the clearance is the rate of elimination divided by the concentration. As a reminder, the Vd is a proportionality between amount in the body and measured concentration, not a real space. What is called bioavailability is dose-corrected exposure relative to a reference, in per cent. In general, AUC refers to the area under the concentration-time curve, a measure of exposure. As a reminder, the Kp is tissue or fluid exposure divided by exposure in the circulation. What is called EC50 is the concentration that produces a half-maximal response. What is called ED50 is the dose that gives a 50% effect, or the effect in half of the subjects. Broadly, the AUC(0-t) is the area under the concentration-time curve up to a stated or last time point.

Values after ≈ are worked out from the molar mass of the structure shown. Where only a bound is given, the exact number is not on record here.

Chain of Phosphatidylinositol 4,5-bisphosphate 3-kinase catalytic subunit alpha isoform (P42336 whole entry, canonical isoform): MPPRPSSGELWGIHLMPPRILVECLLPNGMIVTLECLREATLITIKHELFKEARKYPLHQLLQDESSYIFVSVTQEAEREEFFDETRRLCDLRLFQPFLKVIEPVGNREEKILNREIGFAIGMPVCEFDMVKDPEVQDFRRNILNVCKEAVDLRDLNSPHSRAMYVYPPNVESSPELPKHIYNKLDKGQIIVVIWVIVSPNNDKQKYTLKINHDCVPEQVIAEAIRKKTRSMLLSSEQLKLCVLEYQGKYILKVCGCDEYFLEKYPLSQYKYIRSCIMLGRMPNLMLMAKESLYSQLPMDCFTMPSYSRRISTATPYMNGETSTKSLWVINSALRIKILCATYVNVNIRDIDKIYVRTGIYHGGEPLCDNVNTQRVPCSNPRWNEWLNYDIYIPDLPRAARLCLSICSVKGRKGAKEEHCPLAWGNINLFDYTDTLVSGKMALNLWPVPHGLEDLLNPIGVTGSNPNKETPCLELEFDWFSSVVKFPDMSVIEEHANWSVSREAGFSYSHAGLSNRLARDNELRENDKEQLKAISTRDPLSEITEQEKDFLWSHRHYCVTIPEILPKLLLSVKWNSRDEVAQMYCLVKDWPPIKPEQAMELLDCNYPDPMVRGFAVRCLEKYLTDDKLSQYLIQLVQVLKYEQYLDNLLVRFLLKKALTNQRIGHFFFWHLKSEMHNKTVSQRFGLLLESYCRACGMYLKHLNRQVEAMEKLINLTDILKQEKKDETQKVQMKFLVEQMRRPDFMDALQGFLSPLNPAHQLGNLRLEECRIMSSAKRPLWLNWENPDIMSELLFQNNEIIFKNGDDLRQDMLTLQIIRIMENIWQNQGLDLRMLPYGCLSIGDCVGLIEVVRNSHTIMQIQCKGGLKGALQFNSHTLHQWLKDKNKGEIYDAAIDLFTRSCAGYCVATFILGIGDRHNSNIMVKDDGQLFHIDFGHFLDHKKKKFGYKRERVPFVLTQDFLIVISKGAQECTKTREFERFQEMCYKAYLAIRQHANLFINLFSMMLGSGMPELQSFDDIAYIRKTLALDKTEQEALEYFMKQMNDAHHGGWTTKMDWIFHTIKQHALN

As to `CC(=O)Nc1nc2ccc(-c3cnc(Cl)c(NS(=O)(=O)c4ccc(F)cc4)c3)cc2s1`, the microsomal CLint (in data set [1]; in data set [2]; in [3]; in the data set “in vitro [6]”; in the data set “in vitro [7]”) was below 26 µL/min/mg each time. In addition, the QH in the data set listed under Rattus norvegicus [4], in the data set filed under Canis familiaris and in the data set filed under Mus musculus [5] was 0.2% throughout.

As for `Nc1nc2ccc(-c3cnc(Cl)c(NS(=O)(=O)c4ccc(F)cc4)c3)cc2s1`, the IC50 in data set [8] was 0.024 µM.

In the case of `O=S(=O)(Nc1cc(-c2ccc3ncsc3c2)cnc1Cl)c1ccc(F)cc1`, the IC50 in [8] amounted to 0.033 µM.

Consider `CC(=O)Nc1cn2nc(-c3cnc(Cl)c(NS(=O)(=O)c4ccc(F)cc4)c3)ccc2n1`, for which the Ki was 0.0019 µM in data set [9], 0.0008 µM in data set [10], 0.0014 µM in data set [24] and 0.0035 µM in data set [25]. The compound also had a clearance in [11] of 0.667 mL/min/kg. Further, the QH with Rattus norvegicus [12] came to 1.2%. Besides, in [13], the Vd was found to be 0.27 L/kg. Moreover, the half-life in data set [14] is 7 h. Also, the bioavailability in [15] came to 46%. In [16], this compound registered an AUC of 11500 ng·h/mL. Further, in data set [17], the Kp at 8 h is 0.13. Further, in data set [18], the Kp at 16 h was 0.27. Besides, the EC50 turned out to be 0.232 µg/mL (≈ 0.503 µM) with Mus musculus [19] and 0.5 µM with Plasma. The inhibition in vivo at 1 mg/kg in data set [20] is 49%. In data set [21], the ED50 was determined as 0.7 mg/kg. In [22], the AUC(0-t) at 24 h was determined as 9200 ng·h/mL. Moreover, the Activity with Mus musculus [23] is recorded as below 5%. The IC50 in [8] amounted to 0.0004 µM.

Regarding `Nc1cn2nc(-c3cnc(Cl)c(NS(=O)(=O)c4ccc(F)cc4)c3)ccc2n1`, the Ki in [24] stood at 0.011 µM. In addition, the IC50 in [8] stood at 0.035 µM.

As for `O=S(=O)(Nc1cc(-c2ccc3nccn3n2)cnc1Cl)c1ccc(F)cc1`, in data set [24], the Ki is 0.0061 µM. Also, the IC50 in [8] was determined as 0.049 µM.

On to `CC(=O)Nc1cn2cc(-c3cnc(Cl)c(NS(=O)(=O)c4ccc(F)cc4)c3)ccc2n1`, for which the Ki in [24] is 0.0012 µM. Besides, the IC50 in data set [8] was found to be 0.0066 µM.

For the compound `Nc1cn2cc(-c3cnc(Cl)c(NS(=O)(=O)c4ccc(F)cc4)c3)ccc2n1`, the Ki in data set [24] is 0.0028 µM. The IC50 in data set [8] came out at 0.02 µM.

`O=S(=O)(Nc1cc(-c2ccc3nccn3c2)cnc1Cl)c1ccc(F)cc1`: the inhibition constant Ki in [24] was 0.023 µM. Further, the IC50 in data set [8] stood at 0.229 µM.

Regarding `CC(=O)Nc1nc2ccc(-c3cnc(Cl)c(NS(=O)(=O)c4ccc(F)cc4)c3)cc2[nH]1`, the Ki in data set [24] worked out at 0.0033 µM. Moreover, the IC50 in data set [8] is 0.02 µM.

As for `Nc1nc2ccc(-c3cnc(Cl)c(NS(=O)(=O)c4ccc(F)cc4)c3)cc2[nH]1`, in data set [24], the Ki came out at 0.119 µM. Besides, the IC50 in data set [8] worked out at 0.43 µM.

In the case of `O=S(=O)(Nc1cc(-c2ccc3nc[nH]c3c2)cnc1Cl)c1ccc(F)cc1`, the Ki in data set [24] was 0.068 µM. The IC50 in [8] is 0.446 µM.

On to `CC(=O)Nc1nc2ccc(-c3cnc(Cl)c(NS(=O)(=O)c4ccc(F)cc4)c3)cc2o1`, for which the Ki in data set [24] stood at 0.047 µM. The IC50 in data set [8] amounted to 0.146 µM.

For the compound `Nc1nc2ccc(-c3cnc(Cl)c(NS(=O)(=O)c4ccc(F)cc4)c3)cc2o1`, the Ki in data set [24] worked out at 0.0072 µM. Also, the IC50 in data set [8] came out at 0.07 µM.

On to `O=S(=O)(Nc1cc(-c2ccc3ncoc3c2)cnc1Cl)c1ccc(F)cc1`, for which the inhibitory constant (Ki) in data set [24] stood at 0.026 µM. In [8], the IC50 amounted to 0.076 µM.

Regarding `O=S(=O)(Nc1cc(-c2ccc3nncn3c2)cnc1Cl)c1ccc(F)cc1`, in data set [24], the Ki was found to be 0.051 µM. In addition, in data set [8], the IC50 is above 25 µM.

Turning to `O=S(=O)(Nc1cc(-c2ccc3sncc3c2)cnc1Cl)c1ccc(F)cc1`, the Ki in data set [24] was determined as 0.076 µM. The IC50 in data set [8] was found to be 0.292 µM.
